Data as given in paper PMC11435058, “Synthesis of New Thiazole-Privileged Chalcones as Tubulin Polymerization Inhibitors with Potential Anticancer Activities” (Pharmaceuticals, 2024).
Where two headings read alike, the source gives them in different places.

Columns and labels:
RXF 393 = experiment: NCI-60 anticancer screen (SRB; single dose and five doses); conditions: Homo sapiens, RXF 393, 48 h, read-out: Growth Percentage
COLO 205 = experiment: as above; conditions: Homo sapiens, COLO 205, 48 h, read-out: Growth Percentage
HCC-2998 = experiment: as above; conditions: Homo sapiens, HCC 2998, 48 h, read-out: Growth Percentage
ACHN = experiment: as above; conditions: Homo sapiens, 48 h, read-out: Growth Percentage
MDA-MB-468 = experiment: as above; assay type: cell-based, human; conditions: Homo sapiens, 48 h; MDA-MB-468; dose of 10 μM; read-out: Growth Percentage
Method in brief: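 NCI panel of about 60 human tumor cell lines treated with compound at a single concentration (10μM) for 48 h. Growth measured by SRB protein staining and expressed as percent growth of treated versus untreated control cells.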

NCI-H322M = experiment: as above; conditions: Homo sapiens, 48 h, read-out: Growth Percentage
SNB-19 = experiment: cells; conditions: Homo sapiens, SNB-19, 48 h, read-out: Growth Percentage
HOP-92 = experiment: NCI-60 anticancer screen (SRB; single dose and five doses); conditions: Homo sapiens, HOP-92, 48 h, read-out: Growth Percentage
A498 = experiment: as above; conditions: Homo sapiens, A498, 48 h, read-out: Growth Percentage, A498; dose of 10 μM
HOP-62 = experiment: as above; conditions: Homo sapiens, HOP-62, 48 h, read-out: Growth Percentage
SK-MEL-28 = experiment: as above; conditions: Homo sapiens, SK-MEL-28, 48 h, read-out: Growth Percentage
HCT-116 = experiment: as above; conditions: Homo sapiens, HCT-116, 48 h, read-out: Growth Percentage
NCI-H522 = experiment: as above; conditions: Homo sapiens, NCI-H522, 48 h, read-out: Growth Percentage
PC-3 = experiment: as above; conditions: Homo sapiens, PC-3, 48 h, read-out: Growth Percentage
NCI-H460 = experiment: as above; conditions: Homo sapiens, NCI-H460, 48 h, read-out: Growth Percentage
SK-OV-3 = experiment: as above; conditions: Homo sapiens, SK-OV-3, 48 h, read-out: Growth Percentage
RPMI-8226 = experiment: as above; conditions: Homo sapiens, RPMI-8226, 48 h, read-out: Growth Percentage
MOLT-4 = experiment: as above; conditions: Homo sapiens, MOLT-4, 48 h, read-out: Growth Percentage
BT-549 = experiment: as above; conditions: Homo sapiens, BT-549, 48 h, read-out: Growth Percentage
A549/ATCC = experiment: as above; conditions: Homo sapiens, A549, 48 h, read-out: Growth Percentage
[1] = test system: 60 human tumor cell lines panel; experiment: NCI-60 anticancer screen, whole panel (means and ranges over the cell lines); assay type: cell-based; conditions: Homo sapiens, 48 h
OVCAR-8 = experiment: NCI-60 anticancer screen (SRB; single dose and five doses); conditions: Homo sapiens, OVCAR-8, 48 h, read-out: Growth Percentage
NCI-H226 = experiment: as above; conditions: Homo sapiens, NCI-H226, 48 h, read-out: Growth Percentage
MALME-3M = experiment: as above; conditions: Homo sapiens, 48 h, read-out: Growth Percentage
NCI/ADR-RES = experiment: as above; conditions: Homo sapiens, 48 h, read-out: Growth Percentage
[2] = read-out: growth percentages against most of the tested cells (lowest to highest)
[3] = mean over the tested cell lines, dose of 10 μM, read-out: Mean growth percentage
[4] = range over the cell lines, dose of 10 μM, read-out: growth percentages against most of the tested cells (lowest to highest)

Row | SMILES | activity at 10 µM (RXF 393) | activity at 10 µM (COLO 205) | activity at 10 µM (HCC-2998) | activity at 10 µM (ACHN) | activity at 10 µM (MDA-MB-468) | activity at 10 µM (NCI-H322M) | activity at 10 µM (SNB-19) | activity at 10 µM (HOP-92) | activity at 10 µM (A498) | activity at 10 µM (HOP-62) | activity at 10 µM (SK-MEL-28) | activity at 10 µM (HCT-116) | activity at 10 µM (NCI-H522) | activity at 10 µM (PC-3) | activity at 10 µM (NCI-H460) | activity at 10 µM (SK-OV-3) | activity at 10 µM (RPMI-8226) | activity at 10 µM (MOLT-4) | activity at 10 µM (BT-549) | activity at 10 µM (A549/ATCC) | other results
1 | Cc1ccc(/C=C/C(=O)c2sc(=S)[nH]c2C)cc1 [2j, (E)-1-(4-Methyl-2-Thioxo-2,3-Dihydrothiazol-5-yl)-3-(p-Tolyl)Prop-2-En-1-One] | 55.4% | 122% | 77.2% | 71.2% | 11.8% | 62.1% | 65.5% | 98% | 131% | 54.1% | 92.8% | 46.7% | 60.2% | 74.8% | 53.1% | 102% | 18.9% | 68.8% | 56.1% | 74.3% | activity at 10 µM [1, 2]: 11.8 to 131%; activity at 10 µM [1, 3]: 63.3%; activity at 10 µM (OVCAR-8): 17.3%; activity at 10 µM (NCI-H226): 93.8%; activity at 10 µM (MALME-3M): 84.7%; activity at 10 µM (NCI/ADR-RES): 31%
2 | Cc1[nH]c(=S)sc1C(=O)/C=C/c1ccc(N(C)C)cc1 [2k, (E)-3-(4-(Dimethylamino)Phenyl)-1-(4-Methyl-2-Thioxo-2,3-Dihydrothiazol-5-yl)Prop-2-En-1-One] | 90.8% | 115% | 95.3% | 75.7% | 35.4% | 81.1% | 71.2% | 119% | 130% | 86.2% | 92.7% | 72.2% | 58.9% | 71.7% | 85.7% | 92.6% | 41.5% | 62.1% | 82.2% | 68.1% | activity at 10 µM [1, 2]: 35.4 to 130%; activity at 10 µM [1, 3]: 77.7%; activity at 10 µM (OVCAR-8): 83.4%; activity at 10 µM (NCI-H226): 88.3%; activity at 10 µM (MALME-3M): 79.4%; activity at 10 µM (NCI/ADR-RES): 56.9%
3 | COc1cccc(/C=C/C(=O)c2sc(=S)[nH]c2C)c1OC [2m, (E)-3-(2,3-Dimethoxyphenyl)-1-(4-Methyl-2-Thioxo-2,3-Dihydrothiazol-5-yl)Prop-2-En-1-One] | 52.5% | 103% | 79.8% | 52.5% | 41.1% | 62.8% | 37.2% | 61.5% | 109% | 91.8% | 70% | 46.5% | 32.9% | 41.6% | 40.1% | 85.6% | 9.09% | 36.8% | 71% | 43.1% | activity at 10 µM [1, 3]: 49.9%; activity at 10 µM [1, 4]: 5.15 to 109%; activity at 10 µM (OVCAR-8): 44.6%; activity at 10 µM (NCI-H226): 90.8%; activity at 10 µM (MALME-3M): 97.1%; activity at 10 µM (NCI/ADR-RES): 30.9%
4 | COc1ccc(/C=C/C(=O)c2sc(=S)[nH]c2C)cc1OC [2o, (E)-3-(3,4-Dimethoxyphenyl)-1-(4-Methyl-2-Thioxo-2,3-Dihydrothiazol-5-yl)Prop-2-En-1-One] | 48.1% | 116% | 41.7% | 64.9% | -0.42% | 63.4% | 61.9% | 83.7% | 126% | 34.1% | 83.2% | 34.5% | 56.8% | 68.9% | 40% | 76.9% | 18.6% | 73.8% | 18.9% | 64.6% | activity at 10 µM [1, 3]: 55.1%; activity at 10 µM [1, 4]: -0.42 to 126%; activity at 10 µM (OVCAR-8): 34.3%; activity at 10 µM (NCI-H226): 80.5%; activity at 10 µM (MALME-3M): 89.6%; activity at 10 µM (NCI/ADR-RES): 26.9%
